# Test results taken from publication PMC7397336, “5-(4H)-Oxazolones and Their Benzamides as Potential Bioactive Small Molecules” (Molecules, 2020).
# Values joined by “and” are separate entries in the source; they are usually repeats but may differ in a detail not shown here. Identical values can stand only once. Marks after values point to notes of the source that are not given here.
# Experiments:
# [1] = tested on: acetic acid induced writhing; assay: Anti-nociception, acetic acid writhing test; assay type: in vivo, Fisher 344 rats; conditions: 0.0057 mmol/kg body weight i.p., 0.6% acetic acid
# From the text: The animals (Fisher 344 rats), which have been bred in our laboratory, were housed under standard conditions and received a diet of commercial food pellets and water ad libitum during the maintenance but they were entirely fasted during the experiment period. Both sexes were used while females pregnant were excluded. Each group was composed of 6–15 animals. Our studies were in accordance with recognized guidelines on animal experimentation (guidelines for the care and use of laboratory animals published by the Greek Government 160/1991, based on EU regulations 86/609). Rats were kept in the Centre of the School of Veterinary Medicine (EL54 BIO42), Aristotle University of Thessaloniki, which is registered by the official state veterinary authorities (presidential degree 56/2013, in harmonization with the European Directive 2010/63/EEC). The experimental protocols were approved by the Animal Ethics Committee of the Prefecture of Central Macedonia (no. 270079/2500). In order to study the analgesic activity of the tested compound, pain is provoked with acetic acid. Three groups for each compound were used with five animals per group. We followed our previous presented method. After treatment with the tested compounds (0.0057 mmol/kg body weight; intraperitoneally) in group 1, 2nd group was used as a positive control (aspirin; 0.0057 mmol/kg body weight i.p.) and another group (3rd) served as the control in which saline was administered (negative control). After 30 min, 0.6% acetic acid (1 mL/kg body weight) was injected i.p. The number of writhes was recorded for each animal every 5 min during a subsequent 30 min period.
# trypsin = target: T1, trypsin (Bos taurus, UniProt P00760); assay: Inhibition of trypsin induced proteolysis; assay type: biochemical
# T1 sequence (P00760 24-246): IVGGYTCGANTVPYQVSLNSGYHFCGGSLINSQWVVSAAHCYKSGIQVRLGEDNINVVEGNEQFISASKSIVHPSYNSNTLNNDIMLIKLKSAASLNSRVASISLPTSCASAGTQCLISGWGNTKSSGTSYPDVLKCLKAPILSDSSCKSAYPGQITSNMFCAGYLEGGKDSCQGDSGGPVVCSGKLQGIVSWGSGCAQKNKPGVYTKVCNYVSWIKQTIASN
# Experimental: (§1) Each in vitro experiment was performed at least in triplicate and the standard deviation of absorbance was less than 10% of the mean. For the in vitro assays, a stock solution (1% DMSO in the appropriate buffer with the tested compound diluted under sonification) was prepared from which several dilutions were made with the appropriate buffer.
# The tested compounds (10 µL) were dissolved in DMSO (final concentration 100 µM), with phosphate buffer (pH = 7.6) to give 0.005–0.1 mM solutions, and 100 µL trypsin (1 mg/10 mL) were preincubated at 37 °C for 30 min. Then, 200 µL of albumin (6 mg in 3 mL of distilled water) was added and incubated again at 37 °C for 24 h. After the incubation 1 mL trichloroacetic acid (5% w/w) was added to terminate the reaction. The mixture is centrifugated, the water layer is collected and monitored at 280 nm.
# soybean lipoxygenase = target: T2, soybean lipoxygenase (Glycine max, UniProt P08170); assay: Soybean lipoxygenase inhibition study; assay type: biochemical; conditions: for inhibition at 100 µM: read-out: LOX % inhibition 100 μM; for IC50: soybean lipoxygenase, sodium linoleate 0.1 mM, read-out: LOX IC50
# T2 construct: purchased Sigma Chemical, Co. (St. Louis, MO, USA)
# T2 sequence (P08170 1-839): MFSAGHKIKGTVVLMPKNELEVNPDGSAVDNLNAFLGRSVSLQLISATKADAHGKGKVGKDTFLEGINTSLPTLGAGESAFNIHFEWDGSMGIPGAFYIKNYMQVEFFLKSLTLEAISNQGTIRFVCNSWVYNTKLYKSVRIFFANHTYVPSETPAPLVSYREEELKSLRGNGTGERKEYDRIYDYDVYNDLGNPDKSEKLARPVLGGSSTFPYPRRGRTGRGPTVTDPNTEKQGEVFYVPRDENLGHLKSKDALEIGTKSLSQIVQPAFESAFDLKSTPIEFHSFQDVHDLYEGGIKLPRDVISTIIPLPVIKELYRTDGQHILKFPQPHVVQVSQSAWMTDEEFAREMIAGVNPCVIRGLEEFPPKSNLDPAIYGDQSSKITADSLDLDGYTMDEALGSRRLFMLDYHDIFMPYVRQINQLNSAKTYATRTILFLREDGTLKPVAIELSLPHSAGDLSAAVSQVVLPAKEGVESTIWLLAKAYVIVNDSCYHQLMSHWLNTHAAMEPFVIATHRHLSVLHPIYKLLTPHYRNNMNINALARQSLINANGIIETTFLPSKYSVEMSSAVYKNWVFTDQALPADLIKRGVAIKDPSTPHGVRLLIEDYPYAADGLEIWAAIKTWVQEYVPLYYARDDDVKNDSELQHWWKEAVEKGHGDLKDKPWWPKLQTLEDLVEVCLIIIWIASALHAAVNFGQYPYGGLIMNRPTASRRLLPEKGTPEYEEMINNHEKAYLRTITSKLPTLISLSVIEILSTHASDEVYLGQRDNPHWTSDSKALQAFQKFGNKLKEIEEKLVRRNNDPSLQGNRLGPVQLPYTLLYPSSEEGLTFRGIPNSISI
# Experimental: For the in vitro assays, a stock solution (1% DMSO in the appropriate buffer with the tested compound diluted under sonification) was prepared from which several dilutions were made with the appropriate buffer. DMSO solution of the tested compound (stock solutions 10 mM) was incubated with sodium linoleate (0.1 mM) and 0.2 mL of soybean lipoxygenase solution (1/9 × 10^−4 w/v in saline) at room temperature. The test follows our previous published methods. […] Several concentrations were used to determine the IC50.
# [2] = Inhibition of linoleic acid lipid peroxidation (AAPH)
# From the text: Azo compounds, like AAPH, generating free radicals through spontaneous thermal decomposition are useful for in vitro studies of free radical production. Production of conjugated diene hydroperoxide by oxidation of sodium linoleate in an aqueous solution is monitored at 234 nm. This assay can be used to follow oxidative changes and to understand the contribution of each tested compound. […] It seems that the presence of moiety Ar (Scheme 1) is mainly correlated with the antioxidant result. The nature of the heteroatom O/S in Ar substituent in the 5-membered oxazolone ring (compounds 2c and 2e) influences the biological response. The replacement of the thienyl group in 2c by a furyl group (2e) leads to a 31% decrease of the antioxidant ability.
# as §1
# The AAPH-induced oxidation of linoleic acid measures the ability of an antioxidant to prevent oxidation of linoleic acid sodium salt induced by alkylperoxyl radicals, generated from the water soluble azo compound 2,2′-azobis(2-amidinopropane) dihydrochloride (AAPH). The assay was performed according to our previous publications. Trolox was used as reference compound.
# mushroom tyrosinase = mushroom tyrosinase (Agaricus bisporus, UniProt C7FF04); assay: Tyrosinase inhibition assay; assay type: biochemical; conditions: L-Dopa substrate, read-out: ΤyrI% 100 μM (inhibition of mushroom tyrosinase)
# Experimental: For the in vitro assays, a stock solution (1% DMSO in the appropriate buffer with the tested compound diluted under sonification) was prepared from which several dilutions were made with the appropriate buffer.
# [3] = tested on: carrageenin-induced rat paw edema; assay: Inhibition of the carrageenin-induced rat paw edema; assay type: in vivo, Fisher 344 rats; conditions: 0.0057 mmol/kg body weight i.p., 3.5 h after carrageenin
# Experimental: For the estimation of anti-inflammatory potential of the tested compounds the rat carrageenin induced paw edema assay was employed as a model for acute inflammation. Indomethacin, as a reference drug, and our compounds were administered intraperitoneally in order to ensure systemic response via fast bioavailability, while carrageenin’s intradermal administration, as inflammatory agent, aimed to local response. The development of the edema induced by carrageenin has been described as a biphasic event. The early phase of the inflammatory response, lasting 0.5–1.5 h, is chiefly mediated by histamine and serotonin release inducing hyperalgesia, swelling and redness, while the later phase, lasting 3–6 h, is sustained presumably by prostaglandin release. This model reliably predicts the anti-inflammatory efficacy of the NSAIDs during the second phase, since non-steroidal anti-inflammatory drugs (NSAIDs) present weak activity in the first phase. Therefore, using this protocol we could evaluate our compounds as potential anti-inflammatory agents, as a result of inhibition of prostaglandin amplification.
# The animals (Fisher 344 rats), which have been bred in our laboratory, were housed under standard conditions and received a diet of commercial food pellets and water ad libitum during the maintenance but they were entirely fasted during the experiment period. Both sexes were used while females pregnant were excluded. Each group was composed of 6–15 animals. Our studies were in accordance with recognized guidelines on animal experimentation (guidelines for the care and use of laboratory animals published by the Greek Government 160/1991, based on EU regulations 86/609). […]
# Edema was induced in the right hind paw of the rats by the intradermal injection of 0.1 mL 2% carrageenin in water we followed our previous published method. […] The change in paw weight was compared with that in control animals (treated with water) and expressed as a percent inhibition of the edema CPE % values. […]
# mushroom tyrosinase, sequence (G1K3P4 entry or part of it): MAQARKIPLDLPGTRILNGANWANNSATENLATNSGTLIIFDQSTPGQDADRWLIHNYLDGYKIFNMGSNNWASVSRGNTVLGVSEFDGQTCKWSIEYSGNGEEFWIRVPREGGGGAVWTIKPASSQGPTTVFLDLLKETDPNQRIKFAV
# mushroom tyrosinase, sequence (C7FF04 1-392): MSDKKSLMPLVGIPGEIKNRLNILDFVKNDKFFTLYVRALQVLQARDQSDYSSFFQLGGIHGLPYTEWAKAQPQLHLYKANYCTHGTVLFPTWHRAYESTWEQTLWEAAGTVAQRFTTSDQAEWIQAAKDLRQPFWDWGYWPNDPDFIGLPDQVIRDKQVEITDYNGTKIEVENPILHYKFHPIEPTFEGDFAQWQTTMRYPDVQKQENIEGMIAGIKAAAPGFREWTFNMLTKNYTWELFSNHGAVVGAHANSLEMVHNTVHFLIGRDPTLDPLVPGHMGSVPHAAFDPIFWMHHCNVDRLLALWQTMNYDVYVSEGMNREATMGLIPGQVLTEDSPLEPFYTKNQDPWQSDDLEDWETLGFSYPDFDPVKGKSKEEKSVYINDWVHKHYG
Iptr% 10 µM (% trypsin inhibition) (trypsin),inhibition at 100 µM (soybean lipoxygenase),IC50 (soybean lipoxygenase),melting point,inhibition at 100 µM (mushroom tyrosinase),Compound,Writhing Inhibition (%) [1],AAPH% 100 µM (anti-lipid peroxidation) [2],CPE (%) inhibition of carrageenin-induced rat paw edema [3]
–,–,–,–,–,"CC(=O)Oc1ccccc1C(=O)O [Aspirin, aspirin, reference compound]",77%,–,–
no,< 50%,100 µM,135 to 138 °C,–,"O=C(N/C(=C\c1ccccc1)C(=O)N1CCOCC1)c1ccccc1 [Compound 3a, (Z)-N-(3-morpholino-3-oxo-1-phenylprop-1-en-2-yl)benzamide]",–,69%,–
–,36%,–,265 to 268 °C,33%,"O=C(N/C(=C\c1ccccc1)C(=O)N1CCN(C(=O)/C(=C/c2ccccc2)NC(=O)c2ccccc2)CC1)c1ccccc1 [Compound 4a, N,N′-((1Z,1′Z)-piperazine-1,4-diylbis(3-oxo-1-phenylprop-1-ene-3,2-diyl))bisbenzamide]",32%,82%,44 * % and 44%
–,–,41 µM,292 to 294 °C,42%,"O=C(N/C(=C\c1cccs1)C(=O)N1CCN(C(=O)/C(=C/c2cccs2)NC(=O)c2ccccc2)CC1)c1ccccc1 [Compound 4c, N,N′-((1Z,1′Z)-piperazine-1,4-diylbis(3-oxo-1-(thiophen-2-yl)prop-1-ene-3,2-diyl))bisbenzamide]",58%,93%,56 ** % and 56%
